Entries after “also recorded” stand apart in the source; their conditions may differ. Where two headings read alike, the source gives them in different places.
Experiments:
[1] = system: SARS-CoV-2 (2019-nCoV) virus; type: cell-based; details: for Copy number of virus genome: 100TCID50, 48 hours, supernatant
Vero-E6 cells = experiment: Cytotoxicity test of drugs, CCK-8 kit; type: cell-based; details: 48 hours; for Cell viability (% of vehicle control): Vero-E6 cells
Description: The cytotoxicity test of drugs was carried out by using CCK-8 kit (Beyotime). Specific steps were as follows:
(1) 1×10^4 Vero-E6 cells (ATCC) were inoculated in a 96-well plate and cultured at 37° C. for 8 hours.
(2) The drug was diluted with DMSO to an appropriate concentration of mother solution, and then diluted with MEM (purchased from Gibco company, Catalog No. 10370021) medium containing 2% FBS (purchased from Gibco company, Catalog No. 16000044) to the same concentration as that for the drug treatment. The original medium in the 96-well plate was discarded, 100 μL of the drug-containing MEM medium was taken and added to the cells, and three replicate wells were set for each concentration. A vehicle control (adding DMSO and medium to cells in wells, without adding drug) and a blank control (adding DMSO and medium to the wells, without cells) were set up. After the drug was added, the cells were cultured at 37° C. for 48 hours.
(3) 20 μL of CCK-8 solution (Beyotime) was added to the well to be tested, mixed gently without generating bubbles, and cultured subsequently at 37° C. for 2 hours. OD450 was read on a microplate reader (purchased from Molecular Devices, model: SpectraMax M5), and the cell viability was calculated:
Cell viability (%)=(A(drug treatment group)−A(blank control))/(A(vehicle control)−A(blank control))×100%
Wherein, A was the reading of the microplate reader.

rotavirus = details: clinical trials; cited from earlier work
influenza = details: 600 mg twice daily for five days, adults and adolescents; cited from earlier work

For CC(=O)Oc1ccccc1C(=O)Nc1ncc([N+](=O)[O-])s1 [nitazoxanide, 2-(acetyloxy)-N-(5-nitro-2-thiazolyl) benzamide], the “Copy number of virus genome” value ([1]; 0.14 μM, Vero E6 cells) was 820470664.5, the “Copy number of virus genome” value ([1]; 0.41 μM, Vero E6 cells) was 363337006 and the “Copy number of virus genome” value ([1]; 1.23 μM, Vero E6 cells) was 76022948.5. The “Copy number of virus genome” value ([1]; 3.70 μM, Vero E6 cells) was 21027512.5, the “Copy number of virus genome” value ([1]; 11.11 μM, Vero E6 cells) was 5389366.5 and the “Copy number of virus genome” value ([1]; 33.33 μM, Vero E6 cells) was 1424671.5. The “Copy number of virus genome” value ([1]; 100 μM, Vero E6 cells) was 1220444.5, the “Viral RNA load in the cells” value ([1]; Vero E6 cells, 48 hours after infection by SARS-CoV-2, FIG. 1(a)) was “can reduce the viral RNA load” and the “Inhibition of replication of SARS-CoV-2 virus genome in the infected supernatant” value ([1]; at concentrations of 100 μM, 33 μM, 11.1 μM and 3.7 μM) was “could effectively inhibit the replication”. For the same compound, the “Cell viability (% of vehicle control)” value (Vero-E6 cells; 0.14 μM) was 98.78 % of vehicle control, the “Cell viability (% of vehicle control)” value (Vero-E6 cells; 0.41 μM) was 101.40 % of vehicle control and the “Cell viability (% of vehicle control)” value (Vero-E6 cells; 1.23 μM) was 98.54 % of vehicle control. The “Cell viability (% of vehicle control)” value (Vero-E6 cells; 3.70 μM) was 96.47 % of vehicle control, the “Cell viability (% of vehicle control)” value (Vero-E6 cells; 11.11 μM) was 96.03 % of vehicle control and the “Cell viability (% of vehicle control)” value (Vero-E6 cells; 33.33 μM) was 93.58 % of vehicle control. The “Cell viability (% of vehicle control)” value (Vero-E6 cells; 100 μM) was 93.29 % of vehicle control, the “Toxic effect on the cells (cytotoxicity)” value (Vero-E6 cells; all test concentrations) was “no cytotoxicity was observed; also recorded: no toxic effect on the cells” and the “Treatment of diarrhea in children caused by rotavirus infection” value (rotavirus) was “can effectively treat diarrhea”. The “Duration of common influenza” value (influenza) was “reduced the duration of common influenza”.

— US20230077704A1, “APPLICATION OF NITAZOXANIDE AND ACTIVE FORM THEREOF, TIZOXANIDE, IN TREATMENT OF SARS-COV-2 INFECTION” (priority 2020, published 2023)
